Assay results reported in patent publication US20260356860A1, “2-SUBSTITUTED 3,4A,5,7,8,8A-HEXAHYDRO-4H-THIOPYRANO[4,3-DJPYRIMIDIN-4-ONES FOR WOUND TREATMENT” (priority 2022, published 2026).

Assays:
Test in all cases: Bacteriostasis, log reduction
Type in all cases: cell-based
[1] = tested on: E. faecalis (derived from ATCC ® 19433 ™); settings: E. faecalis ATCC 19433
Experimental: (§1) In order to assess the log reduction capabilities of compounds of Formula (1), testing was performed on organisms that are found in acute and chronic wounds. Triplicate tubes were prepared for each bacteria using 50 μL of inoculum (about 1×10^6 CFU/mL) which was added to 450 μL of compound solution (compound of Formula (I)) (or 100 μL of inoculum in 900 μL of compound solution), resulting in a final inoculum of about 1×10^5 CFU/mL, as shown in Table 4.
(§2) Tubes were mixed with a vortex and then incubated in a shaking incubator at 175 RPM and 35° C. to 37° C.
(§3) Positive control in Tables 5a and 5b was 1 mL of 0.89% saline with 1 mL of the 1×10^6 CFU/mL of the organism.
(§4) For Compounds 1, 7, 8, 10, and 18 in Tables 6, 7-A, 7-B, 8, 9, 10-A, 10-B, and 11: The compound solutions were prepared with compound (30 mg), polysorbate 20 (1.6 mL), butylene glycol (1.6 mL), phosphatidyl choline (0.66 g), ethanol (1.6 mL), hydroxypropyl cellulose (0.26 g), and ultra pure water (24.9 mL).
(§5) XAV939 Control in Table X1 was XAV939 (30 mg), polysorbate 20 (1.6 mL), butylene glycol (1.6 mL), phosphatidyl choline (0.66 g), ethanol (1.6 mL), ultra pure water (24.9 mL), and hydroxypropyl cellulose (0.26 g).
(§6) GO-HA Control in Table X2 was GO-HA (30 mg), polysorbate 20 (1.6 mL), butylene glycol (1.6 mL), phosphatidyl choline (0.66 g), ethanol (1.6 mL), ultra pure water (24.9 mL), and hydroxypropyl cellulose (0.26 g).
(§7) For Compound 18+GO-HA in Tables 6 and X4: compound 18 (45 mg), GO-HA (45 mg), polysorbate 20 (2 mL), butylene glycol (2 mL), phosphotidyl choline (0.5 g), ethanol (2 mL), hydroxypropyl cellulose (0.40 g), and ultra pure water (40 mL).
(§8) For XAV939+GO-HA in Tables 6 and X3-A, and X3-B: XAV939 (45 mg), GO-HA (45 mg), butylene glycol (2 mL), polysorbate 20 (2 mL), phosphotidyl choline (0.5 g), ethanol (2 mL), hydroxypropyl cellulose (0.40 g), and ultra pure water (40 mL).
(§9) Testing was performed at two time points: 18 to 24 hours, and […].

[2] = tested on: S. aureus (derived from ATCC ® 6538 ™); settings: S. aureus ATCC 6538
Experimental: as §1, §2, §3, §4, §5, §6, §7, §8, §9

[3] = tested on: E. coli (derived from ATCC ® 8739 ™); settings: E. coli ATCC 8739
Experimental: as §1, §2, §3, §4, §5, §6, §7, §8, §9

[4] = tested on: S. epidermidis (derived from ATCC ® 14990 ™); settings: S. epidermidis ATCC 14990
Experimental: as §1, §2, §3, §4, §5, §6, §7, §8, §9

[5] = tested on: P. aeruginosa (derived from ATCC ® 15442 ™); settings: P. aeruginosa ATCC 15442
Experimental: as §1, §2, §3, §4, §5, §6, §7, §8, §9

[6] = tested on: E. coli (derived from ATCC ® 25922 ™); settings: E. coli ATCC 25922
Experimental: as §1, §2, §3, §4, §5, §6, §7, §8, §9

| SMILES | Average result ([1]; 24 h) | Log Reduction ([1]; 24 h) | Log Value ([1]; 24 h) | Average result ([1]; 72 h) | Log Reduction ([1]; 72 h) | Log Value ([1]; 72 h) | Average result ([2]; 24 h) | Log Reduction ([2]; 24 h) | Log Value ([2]; 24 h) | Average result ([2]; 72 h) | Log Reduction ([2]; 72 h) | Log Value ([2]; 72 h) | Average result ([3]; 24 h) | Log Reduction ([3]; 24 h) | Log Value ([3]; 24 h) | Average result ([3]; 72 h) | Log Reduction ([3]; 72 h) | Log Value ([3]; 72 h) | Average result ([4]; 24 h) | Log Reduction ([4]; 24 h) | other results |
| --- | --- | --- | --- | --- | --- | --- | --- | --- | --- | --- | --- | --- | --- | --- | --- | --- | --- | --- | --- | --- | --- |
| O=c1[nH]c(-c2ccc(-c3ccc(Br)nc3)cc2)nc2c1CSCC2 [Compound 7, 2-(4-(6-bromopyridin-3-yl)phenyl)-3,5,7,8-tetrahydro-4H-thiopyrano [4,3-d]pyrimidin-4-one] | 9.3 × 10^5 | No | 6.0 | 6.9 × 10^5 | No | 5.8 | 7.3 × 10^2 | 2.4 | 2.9 | <200 | >3.0 | <2.3 | 7.9 × 10^4 | 0.4 | 4.9 | >3.6 × 10^6 | No | >6.6 | 2.8 × 10^4 | 0.4 | Log Value ([4]; 24 h): 4.4; Average result ([4]; 72 h): <200; Log Reduction ([4]; 72 h): >2.5; Log Value ([4]; 72 h): <2.3; Average result ([5]; 24 h): <200; Log Reduction ([5]; 24 h): >3.1; Log Value ([5]; 24 h): <2.3; Average result ([5]; 72 h): <200; Log Reduction ([5]; 72 h): >3.1; Log Value ([5]; 72 h): <2.3; Average result ([6]; 24 h): 3.2 × 10^5; Log Reduction ([6]; 24 h): No; Log Value ([6]; 24 h): 5.5; Average result ([6]; 72 h): 2.7 × 10^4; Log Reduction ([6]; 72 h): 1.0; Log Value ([6]; 72 h): 4.4 |
| CC(C)(OCCO)c1ccc(-c2nc3c(c(=O)[nH]2)CSCC3)cc1 [Compound 8, 2-(4-(2-(2-hydroxyethoxy)propan-2-yl)phenyl)-3,5,7,8-tetrahydro-4H-thiopyrano[4,3-d]pyrimidin-4-one] | 3.4 × 10^5 | No | 5.5 | 6.5 × 10^4 | No | 4.8 | 5.4 × 10^4 | 0.6 | 4.7 | <7.4 × 10^3 | >1.4 | <3.9 | 3.1 × 10^3 | 1.8 | 3.5 | 6.8 × 10^4 | 0.5 | 4.8 | 6.0 × 10^2 | 2.0 | Log Value ([4]; 24 h): 2.8; Average result ([4]; 72 h): <200; Log Reduction ([4]; 72 h): >2.5; Log Value ([4]; 72 h): <2.3; Average result ([5]; 24 h): 7.3 × 10^2; Log Reduction ([5]; 24 h): 2.5; Log Value ([5]; 24 h): 2.9; Average result ([5]; 72 h): <200; Log Reduction ([5]; 72 h): >3.1; Log Value ([5]; 72 h): <2.3; Average result ([6]; 24 h): 200; Log Reduction ([6]; 24 h): 3.1; Log Value ([6]; 24 h): 2.3; Average result ([6]; 72 h): <200; Log Reduction ([6]; 72 h): >3.1; Log Value ([6]; 72 h): <2.3 |
